Data on three compounds can be found in ChEMBL document CHEMBL6134903, “Challenging triple negative breast cancer through HDAC6 selective inhibition: Novel cap-group identification, structure-activity relationships, computational and biological studies” (Eur J Med Chem, 2025).

The nature of series [1]: Cytotoxicity against human HeLa cells assessed as reduction in cell viability incubated for 72 hrs by CellTiter Glo assay. The format is toxicity, cell-based. For orientation: In ATP-based viability assays light output follows the ATP content of the culture.
The nature of another series: physchem. Particulars: MeOH/H2O, pH 7.

Description for physchem: Solubility of the compound in MeOH/H20 at pH 7 incubated for 24 hrs by LC-MS/MS analysis

In the case of `O=C(/C=C/c1ccc(CN(CCO)CCc2c[nH]c3ccccc23)cc1)NO` [DACINOSTAT], in series [1], the half-maximal inhibitory concentration (IC50) (in general, the concentration that inhibits the measured activity by half) at 72 h worked out at 30.8 nM and the half-maximal cytotoxic concentration (CC50) (in general, the concentration at which the toxic effect on the cells reaches its halfway point) at 72 h amounted to 30 nM. With `Cc1[nH]c2ccccc2c1CCNCc1ccc(/C=C/C(=O)NO)cc1` [PANOBINOSTAT], in series [1], the IC50 at 72 h came out at 10.9 nM and the CC50 at 72 h was 11 nM. For `CN1CCc2c(c3ccccc3n2Cc2ccc(C(=O)NO)cc2)C1` [TUBASTATIN A], in “physchem”, the solubility (as a rule, the dissolved amount per volume that the medium holds) at 24 h is below 1000 µg/mL.
